Measurements: patent publication US10369159B2, “Estrogen receptor β partial agonist having estrogen receptor α inhibitory effect, and gynecological disease therapeutic agent using same” (NOBELPHARMA CO., LTD., priority 2015, dated 2019)
“And” between values parts separate entries of the source, which are not always exact repeats. Equal values may be shown once.

How the values were obtained:
[1] = system: rat endometriosis model (grafted uterine strips); assay: Endometriosis inhibiting activity: grafted uterine strip weight in ovariectomized, E2-treated rat endometriosis model; assay type: in vivo; settings: for Total wet weight of the grafted uterine strips: left and right strips including abdominal wall, vehicle 0.4785 g, Sham 0.2596 g; for Suppression rate of grafted uterine strip weight (% ± SE): vs vehicle control, strip weight after subtracting Sham abdominal wall; for Suppression rate of the grafted uterine strip (average value): vehicle control group set as 0%, Table 2
Procedure: Buprenorphine hydrochloride (Lepetan injection 0.3 mg, Otsuka Pharmaceutical Co., Ltd., […] of which was diluted to 6.7 times with a physiological saline solution to provide 0.03 mg/mL solution when using) was administered subcutaneously into the back of the rats at a dose of 0.0024 mg/body (0.08 mL/body). The administration period was two days, which includes twice before and after the model preparation on the day when the model was prepared, and twice per day on the next day. It should be noted that the dosage amount of 0.0024 mg/body was the one that satisfied a recommended dose of 0.01 mg/kg in […] (0.0096 mg/kg) (estimated weight upon model preparation: 180 to 240 g).
Under 2% inhalation anesthesia, left and right flanks of the rats (operation site) were shaved, and the skin of one of the flasks was dissected. After peeling off the skin, the muscle layer was cut to open using a retractor so as to protrude it to the outside of the body with fat tissue around the ovary, then the fallopian tubes were ligated with a silk thread (sterile suture) followed by removing the ovary including the fat tissue. The peeled muscle layer and one part of the peritoneum were sutured with silk thread (sterile suture), then kanamycin solution, antibiotics, (manufactured by Meiji Seika Pharma Co., Ltd., “Meiji,” kanamycin sulfate injection of 1000 mg was diluted to 5 mg/mL with injection solvent) was applied to the operation site. The dissected skin was sutured with silk thread (sterile suture). Another ovary in the opposite side was removed in the same manner. At the time of the operation, sterile gloves were used, and surgical instruments used were sterilized by an autoclave and beads sterilizer. The surgical area was shaved with an electric clipper followed by disinfected with isodine alcohol and covered with a sterile bedsheet and a covering cloth.
Since the day of ovariectomy, after it was performed, E2 (β-Estradiol, 3 μg/mL animal) was subcutaneously administered to the back of the rats every day for 2 weeks. E2 (3 μg/mL animal) was administered in the same manner during 4 weeks after model preparation on the date that the model was prepared.
Thirteen days after ovariectomy (day 0 counting), the rats were divided into four groups (N=8) as the total weight on the grouping day was uniform in each group. Animals excluded from the groups were distributed to the Sham group.
On the next day of the grouping, models were prepared in accordance with Uchiide et al method, which was partially modified Vernon et al method. Rats were placed under inhalation anesthesia of 2% isoflurane, and made an incision in the abdomen along the midline, then the right uterine horn was excised and cut in half along the vertical line after removing the fat cells around the excised uterine horn. The uterine horn was made an incision along the horizontal axis to cut out two strips of approximately 5 mm×5 mm. The serosal surface of the abdominal cavity and the endometrial surface of the uterus strips were faced and sawed up the four corners thereof with a bioabsorbable suture (6-0, PDS-II, manufactured by Ethicon) to graft the uterine horns into the right and left abdominal walls one by one. In order to avoid adhesion, the abdominal cavity was washed with saline (manufactured by Otsuka Pharmaceutical Factory). Then, the abdominal wall fascia was sawed up with a bioabsorbable suture (4-0, monocryl, manufactured by Ethicon) and the skin was sawed up with a silk suture (4-0, blade silk, manufactured by Ethicon).
A required amount of SR16234 was weighed, pulverized with an agate mortar and pestle, and suspended in 0.5% carboxymethylcellulose sodium (CMC-Na) solution to prepare a 2 mg/mL solution, then used as undiluted solution. Preparation was performed using a volumetric flask. […]

[2] = system: MCP-1; assay: Gene expression analysis of endometrial implants (TaqMan), MCP-1; assay type: in vivo, rat; settings: corrected by GAPDH, n 6, E2 control 29.47 ± 20.81
Procedure: Total RNA was extracted […] the rat-derived endometrial graft (27 specimens), then quality of the RNA was inspected with a spectrophotometer and bio-analyzer, and then reverse transcription reaction of the RNA was performed, followed by gene expression analysis was performed according to TaqMan method.
RNA was extracted from the rat uterine horn strips and grafted uterine strip using the RNeasy Fibrous Tissue Mini Kit.
Concentration of the extracted RNA was measured with a NanaoDrop. Also RIN measurements using a bioanalyzer (6000 nano kits) was carried out. A 6000 pico-kit was used for bioanalyzing of the two samples with low yield (Sample ID: 202, 507).
cDNA obtained by reverse transcription reaction from 1000 ng/uL of commercially available Rat Tissue Universal Reference Total RNA (Catalog Number PR-UR-100, ZYAGEN Inc.) using SuperScript VILO Master Mix (hereinafter “Standard”) was used as a standard substance.
Based on the concentration measured with a spectrophotometer, reverse transcription reaction of the specimen with Super Script VILO Master Mix was performed to give 50 ng/uL of cDNA (the following example). […]
TaqMan reaction by using Step One Plus Real-Time PCR System was performed with standard 250, 62.5, 15.625, 3.9, 0.98 ng/well or sample 5.0 ng/well. A cycle of reaction, two minutes at 50° C. and 10 minutes at 95° C., followed by 15 seconds at 95° C. and one minute at 60° C., was repeated 40 cycles, then the fluorescence value FAM was measured in real time after the reaction at 60° C. In addition to the target eight genes, GAPDH gene as an internal control gene was measured. All the standards and samples were measured in triplicate.
From each of the two calibration curves (target gene, GAPDH gene) obtained from the standard, gene expressions level of the target gene and GAPDH gene of the sample was calculated, respectively. […] And then, an average gene expression level of the samples in each group was calculated, followed by the average gene expression level of the two groups was used as a standard to compare with each of the other groups.

## CCN(CC)Cc1ccc(OCC[C@H]2CC[C@H]3[C@@H]4[C@H](C)Cc5cc(O)ccc5[C@H]4CC[C@]23C)c(OC)c1 [SR16234, (7α)-21-[4-[(diethylamino)methyl]-2-methoxyphenoxy]-7-methyl-19-norpregna-1,3,5(10)-triene-3-ol]
[1]; 0.1 mg/kg p.o. 28 days
  Total wet weight of the grafted uterine strips: 0.3988 g
[1]; 0.1 mg/kg p.o. once a day for 28 days
  Suppression rate of grafted uterine strip weight (% ± SE): 36.4 ± 25.2%
[1]; 0.1 mg/kg p.o.
  Suppression rate of the grafted uterine strip (average value): 26%
[1]; 0.3 mg/kg p.o. 28 days
  Total wet weight of the grafted uterine strips: 0.3401 g
[1]; 0.3 mg/kg p.o. once a day for 28 days
  Suppression rate of grafted uterine strip weight (% ± SE): 63.2 ± 17.7%
[1]; 0.3 mg/kg p.o.
  Suppression rate of the grafted uterine strip (average value): 45%
[1]; 1.0 mg/kg administered group
  Suppression rate of the grafted uterine strip weight compared to the vehicle control group (in words): particularly significant suppression rate
  Total wet weight of the grafted uterine strips compared to the vehicle control group (in words): particularly significant suppression ratio
[1]; 1.0 mg/kg p.o. 28 days
  Total wet weight of the grafted uterine strips: 0.2647 g
[1]; 1.0 mg/kg p.o. once a day for 28 days
  Suppression rate of grafted uterine strip weight (% ± SE): 97.7 ± 21.2%
[1]; 1.0 mg/kg p.o.
  Suppression rate of the grafted uterine strip (average value): 68% and 69.0%
[2]; 0.1 mg/kg
  Expression level MCP-1: 41.95 ± 21.68 ng
[2]; 0.3 mg/kg
  Expression level MCP-1: 28.30 ± 10.93 ng
[2]; 1 mg/kg
  Expression level MCP-1: 26.70 ± 18.30 ng
